Key:
human IGF-1R = human IGF-1R (Homo sapiens (Human), UniProt P08069); test: Cellular IGF-1R-phosphorylation assay (Fibro-hIGF-1R cells); format: cell-based; conditions: IGF-1 stimulated (20 ng/mL, 30 min), 120 min compound incubation, read-out: pIGF-1R EC50 range
Procedure: Cellular IGF-1R-Phosphorylation Assay
The activity of substances against the phosphorylation of IGF-1R in activated cells is measured as follows: mouse fibroblast cells (transfected with human IGF-1R, Fibro-hIGF-1R) are cultivated in standard medium (DMEM, 10% foetal calf serum (FCS, Gibco), 1×MEM Non-Essential Amino Acids (NEAA, Gibco), 7.5% sodium hydrogen carbonate (Gibco) and 0.3 mg/mL Puromycin (Sigma)) in a humid incubator at 37° C. with 5 CO2/95% air.
10000 Fibro-hIGF-1R cells per well in 200 μL of standard medium are seeded into 96-well plates and cultivated overnight. […] 10 μL of substance solution (diluted in serum-reduced medium) is added thereto, and the cells are incubated for a further 120 min in the incubator. The phosphorylation of IGF-1R is activated for 30 min by the addition of IGF-1 (20 ng/mL in serum-reduced medium). All further incubations are carried out at RT. The supernatant is suction filtered from the wells, and the cells are fixed in 100 μL per well of 4% paraformaldehyde (diluted in PBS). The supernatant in the well is suction filtered and the cells are permeabilised for 5 min in 300 μL per well of 0.1% TritonX-100 (diluted in PBS). […] The cells are washed for 5 min with 300 μL per well of PBS with 0.1% TritonX-100 and then incubated for 60 min with 100 μL per well of blocking buffer (PBS with 0.1% TritonX-100 and 5 Bovine Serum Albumin (BSA)). […] The next day the plates are washed for 5 min with 300 μL PBS/0.1% TritonX-100 at RT and then incubated for 60 min with 50 μL per well of the second antibody buffer (1/500 diluted Goat Anti-Rabbit Immunoglobulin-Horseradish Peroxidase (HRP) (Dako) in blocking buffer) at RT. The plates are washed first for 5 min with 300 μL PBS/0.1% TritonX-100 and then for a further 5 min with 300 μL PBS at RT. The plates are developed for 10 min with 100 μL per well of a peroxidase solution (1:1 mixture of TMB Peroxidase Substrate and Peroxidase Solution B from Kirkegaard & Perry Laboratories, Inc.). The reactions are stopped with 100 μL per well of stop solution (1 M phosphoric acid). The absorbance in each well is measured at 450 nm with a SpectraMax Absorbance Reader. EC50 values for inhibiting the phosphorylation of the IGF-1R in activated cells are calculated using the programmes Fifty (Version 2) and GraphPad (Version 3.0).

[1] = target: cytoplasmic kinase domain of human IGF-1R (IGF-1R-GST) (Homo sapiens (Human), UniProt P08069); test: Insulin-like growth factor-1 receptor (IGF-1R) kinase assay (DELFIA); format: biochemical; conditions: inhibition of IGF-1R-kinase activity, read-out: IGF1R IC50
Procedure: Insulin-Like Growth Factor-1 Receptor (IGF-1R)-Kinase Assay
The kinase activity is measured by DELFIA® assay (dissociation-enhanced lanthanide fluorescence immunoassay, Perkin Elmer). […] Enzyme activity is measured in the presence of substances and a control substance. Poly-glutamate-tyrosine peptide (pEY, Sigma Aldrich) and biotinylated pEY (bio-pEY) are used as reaction substrates.
After 40 min at RT the reactions are stopped with 50 μL of stop solution (250 mM EDTA, 20 mM HEPES pH 7.4). 90 μL from each reaction are transferred onto streptavidin-coated 96-well plates. After 120 min incubation at RT the plates are washed three times with 200 μL phosphate-buffered saline (PBS) per well. The plates are incubated for 60 min with 100 μL of europium-coupled antibody against phospho-tyrosine (diluted 1/2000 in Perkin Elmer DELFIA assay buffer) per well. The plates are washed three times with 200 μL per well of DELFIA washing buffer. 100 μL DELFIA Enhancement Solution (Perkin Elmer) is added to each well, and the plates are incubated for 10 min. The fluorescence signal is measured with a Wallac Victor TRF Reader. IC50 values for the inhibition of the IGF-1R-kinase activity are calculated using the programmes Fifty (Version 2) and GraphPad (Version 3.0).

[2] = system: TC-71 (Ewing's sarcoma) cells; test: Cell proliferation assay, TC-71 (Alamar Blue); format: cell-based; conditions: TC-71 cells, 72 h, read-out: TC71 EC50 range
Procedure: Cell Proliferation Assays
Published scientific data has described that interference with the Insulin-like Growth Factor-1 Receptor (IGF-1R) signaling pathway reduces the proliferation of TC-71 cells. Therefore TC-71 cells served as a positive control cell line for monitoring the activity of compounds against IGF-1R-mediated cell proliferation.
2000 TC-71 cells or 1000 HCT 116 cells were seeded per well in 180 μL IMDM+10% foetal calf serum (FCS)+penicillin/streptomycin into 96-well microtitre plates. The plates were placed in a cell culture incubator (37° C. in a humidified atmosphere of 95% […]/5 CO2) overnight. The following day, serial dilutions of compounds, prepared in duplicates, were transferred onto the cell layers (controls without compound). The cells were cultivated for a further 72 h in the cell culture incubator. 20 μL of Alamar Blue™ (Serotec Ltd, Düsseldorf, Germany) was added to each well and the plates incubated for 7 h in the cell culture incubator.

Chain of cytoplasmic kinase domain of human IGF-1R (IGF-1R-GST) (P08069 964-1367 limits assumed): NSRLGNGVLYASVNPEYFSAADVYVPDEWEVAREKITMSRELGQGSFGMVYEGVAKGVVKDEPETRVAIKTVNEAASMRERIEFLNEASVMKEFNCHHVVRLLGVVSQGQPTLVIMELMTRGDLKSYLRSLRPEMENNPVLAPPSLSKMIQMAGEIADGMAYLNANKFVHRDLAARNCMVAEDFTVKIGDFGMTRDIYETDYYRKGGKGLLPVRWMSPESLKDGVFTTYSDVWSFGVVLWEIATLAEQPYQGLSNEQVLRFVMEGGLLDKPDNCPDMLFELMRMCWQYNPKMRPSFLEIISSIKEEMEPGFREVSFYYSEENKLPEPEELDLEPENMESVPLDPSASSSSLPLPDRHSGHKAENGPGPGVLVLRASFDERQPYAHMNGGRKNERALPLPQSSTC
Chain of human IGF-1R (P08069 31-1367): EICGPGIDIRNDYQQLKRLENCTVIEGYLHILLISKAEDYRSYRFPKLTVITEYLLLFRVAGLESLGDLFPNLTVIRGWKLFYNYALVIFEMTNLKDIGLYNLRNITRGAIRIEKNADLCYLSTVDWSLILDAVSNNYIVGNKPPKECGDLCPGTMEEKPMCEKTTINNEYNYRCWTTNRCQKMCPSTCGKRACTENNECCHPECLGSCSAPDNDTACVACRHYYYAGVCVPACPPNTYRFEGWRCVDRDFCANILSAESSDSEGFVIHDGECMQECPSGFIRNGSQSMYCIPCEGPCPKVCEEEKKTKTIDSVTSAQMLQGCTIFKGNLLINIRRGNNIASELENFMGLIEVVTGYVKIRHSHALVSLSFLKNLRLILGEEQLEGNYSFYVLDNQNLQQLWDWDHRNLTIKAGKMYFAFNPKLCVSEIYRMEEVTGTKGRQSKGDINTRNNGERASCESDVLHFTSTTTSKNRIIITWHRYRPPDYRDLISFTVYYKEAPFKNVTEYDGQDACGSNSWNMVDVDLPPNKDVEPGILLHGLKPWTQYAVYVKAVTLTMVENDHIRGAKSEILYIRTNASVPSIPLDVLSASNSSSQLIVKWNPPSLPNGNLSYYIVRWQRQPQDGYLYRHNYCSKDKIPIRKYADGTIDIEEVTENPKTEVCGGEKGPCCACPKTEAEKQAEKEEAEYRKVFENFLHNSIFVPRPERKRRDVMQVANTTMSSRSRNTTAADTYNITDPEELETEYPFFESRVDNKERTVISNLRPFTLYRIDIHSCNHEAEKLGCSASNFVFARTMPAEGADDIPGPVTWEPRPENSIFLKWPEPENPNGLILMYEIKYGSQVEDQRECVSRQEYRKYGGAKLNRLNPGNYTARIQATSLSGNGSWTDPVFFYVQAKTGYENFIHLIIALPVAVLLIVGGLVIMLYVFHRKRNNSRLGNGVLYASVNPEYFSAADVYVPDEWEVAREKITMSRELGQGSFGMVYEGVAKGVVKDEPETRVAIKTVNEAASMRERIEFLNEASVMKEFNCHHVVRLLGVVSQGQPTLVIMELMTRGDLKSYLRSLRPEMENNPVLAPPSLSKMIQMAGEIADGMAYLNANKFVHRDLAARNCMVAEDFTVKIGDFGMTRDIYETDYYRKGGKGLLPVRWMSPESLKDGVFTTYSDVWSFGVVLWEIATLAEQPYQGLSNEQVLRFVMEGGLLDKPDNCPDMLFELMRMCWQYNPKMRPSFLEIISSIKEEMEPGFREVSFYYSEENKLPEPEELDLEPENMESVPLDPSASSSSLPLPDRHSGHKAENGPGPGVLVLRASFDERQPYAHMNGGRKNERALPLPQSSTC

EC50 (human IGF-1R) [nM] | IC50 [1] [nM] | EC50 [2] [nM] | SMILES
< 10 | 0.42 | < 10 | CC(C)n1cc(-c2ccc(-c3c4c(nn3C)CCc3cnc(Nc5cnn(CCN6CCOCC6)c5)nc3-4)cc2)cn1 [I-023]
10 to 100 | 0.24 | < 10 | CN(C)[C@H]1CCN(C(=O)Cn2ccc(Nc3ncc4c(n3)-c3c(nn(C)c3-c3ccc(-c5cnn(C)c5)cc3)CC4)n2)C1 [I-143]
< 10 | 0.22 | < 10 | COc1cc(C(=O)N2CCOCC2)ccc1Nc1ncc2c(n1)-c1c(nn(C)c1-c1ccc(-c3cnn(C)c3)cc1)CC2 [I-156]
< 10 | 0.09 | < 10 | CCN1CCN(c2ccc(Nc3ncc4c(n3)-c3c(nn(C)c3-c3ccc(-c5cnn(C)c5)cc3)CC4)c(OC)c2)CC1 [I-170]
10 to 100 | 0.21 | < 10 | CC(=O)N1CCC(n2cc(Nc3ncc4c(n3)-c3c(nn(C)c3-c3ccc(-c5cnn(C)c5)cc3)CC4)cn2)CC1 [I-051]
 | 0.16 | < 10 | COCCN1CCC(n2cc(Nc3ncc4c(n3)-c3c(nn(C)c3-c3ccc(-c5cnn(C)c5)cc3)CC4)cn2)CC1 [I-175]
< 10 | 0.09 | < 10 | CCn1ccc(Nc2ncc3c(n2)-c2c(nn(C)c2-c2ccc(-c4cnn(CCN5CCC(N(C)C)CC5)c4)cc2)CC3)n1 [I-119]
< 10 | 0.61 | < 10 | COc1cc(C(=O)NC2CCOCC2)ccc1Nc1ncc2c(n1)-c1c(nn(C)c1-c1ccc(-c3cnn(C)c3)cc1)CC2 [I-160]
100 to 600 | 15 | 100 to 200 | CCn1ccc(Nc2ncc3c(n2)-c2c(nn(C)c2-c2ccc(-c4c(C)noc4C)cc2)CC3)n1 [I-066]
< 10 | 0.08 | < 10 | COc1cc(N2CCN(C3CCOCC3)CC2)ccc1Nc1ncc2c(n1)-c1c(nn(C)c1-c1ccc(-c3cnn(C)c3)cc1)CC2 [I-171]
< 10 | 0.26 |  | COc1cc(C(=O)NC(C)C)ccc1Nc1ncc2c(n1)-c1c(nn(C)c1-c1ccc(-c3cnn(C)c3)cc1)CC2 [I-132]
< 10 | 0.28 | < 10 | COCCn1cc(Nc2ncc3c(n2)-c2c(nn(C)c2-c2ccc(-c4cnn(C(C)C)c4)cc2)CC3)cn1 [I-027]
 | 0.34 | < 10 | CN(C)S(=O)(=O)N1CCC(n2cc(Nc3ncc4c(n3)-c3c(nn(C)c3-c3ccc(-c5cnn(C)c5)cc3)CC4)cn2)CC1 [I-178]
< 10 | 2 | < 10 | COc1cc(N2CCN(S(=O)(=O)N(C)C)CC2)ccc1Nc1ncc2c(n1)-c1c(nn(C)c1-c1ccc(-c3cnn(C)c3)cc1)CC2 [I-176]
10 to 100 | 0.16 | < 10 | CCn1ccc(Nc2ncc3c(n2)-c2c(nn(C)c2-c2ccc(-c4cnn(C5CCNCC5)c4)cc2)CC3)n1 [I-063]
10 to 100 | 0.39 | < 10 | CC(=O)N1CCC(n2cc(Nc3ncc4c(n3)-c3c(nn(C)c3Cc3cccc(-c5cnn(C)c5)c3)CC4)cn2)CC1 [I-013]
< 10 | 0.23 | < 10 | COc1cc(C(=O)N[C@@H]2CCN(C)C[C@H]2OC)ccc1Nc1ncc2c(n1)-c1c(nn(C)c1-c1ccc(-c3cnn(C)c3)cc1)CC2 [I-163]
< 10 | 0.31 | < 10 | CCn1ccc(Nc2ncc3c(n2)-c2c(nn(C)c2-c2ccc(-c4cnn(C)c4)cc2Cl)CC3)n1 [I-064]
 | 0.23 | < 10 | Cn1cc(-c2ccc(-c3c4c(nn3C)CCc3cnc(Nc5cnn(C6CCN(S(C)(=O)=O)CC6)c5)nc3-4)cc2)cn1 [I-177]
< 10 | 0.16 | < 10 | COc1cc(C(=O)N2CCN(C)CC2)ccc1Nc1ncc2c(n1)-c1c(nn(C)c1-c1ccc(-c3cnn(C)c3)cc1)CC2 [I-129]
10 to 100 | 0.17 | < 10 | CC(=O)N1CCC(n2cc(Nc3ncc4c(n3)-c3c(nn(C)c3-c3ccc(-c5cnn(C(C)C)c5)cc3)CC4)cn2)CC1 [I-022]
< 10 | 0.21 | < 10 | CC(C)n1cc(-c2ccc(-c3c4c(nn3C)CCc3cnc(Nc5cnn(CCN(C)C)c5)nc3-4)cc2)cn1 [I-020]
100 to 600 | 2 | 10 to 100 | CC(=O)N1CCC(n2cc(Nc3ncc4c(n3)-c3c(nn(C)c3-c3ccc(-c5cnn(C)c5)nc3)CC4)cn2)CC1 [I-180]
10 to 100 | 0.19 | < 10 | COc1cc(C(=O)NC2CN(C)C2)ccc1Nc1ncc2c(n1)-c1c(nn(C)c1-c1ccc(-c3cnn(C)c3)cc1)CC2 [I-164]
< 10 | 0.05 | < 10 | COc1cc(N2CCN(C(C)C)CC2)ccc1Nc1ncc2c(n1)-c1c(nn(C)c1-c1ccc(-c3cnn(C)c3)cc1)CC2 [I-172]
